In paper PMC10385868 (Viruses, 2023):
“And” between values parts separate entries of the source, which are not always exact repeats. Equal entries are not always repeated.

Legend:
A549 = settings: African green monkey
WEEV nsP2 protease = WEEV nsP2 protease (Western equine encephalitis virus, UniProt P13896); assay type: biochemical
[1] = SD, rat
VEEV nsP2 protease = VEEV nsP2 protease (Venezuelan equine encephalitis virus, UniProt P27282); assay: biochemical
CHIKV nsP2 protease = CHIKV nsP2 protease (Chikungunya virus, UniProt Q8JUX6); assay type: biochemical
CHIKV nsP2 protease, sequence (Q8JUX6 1004-1327 limits assumed): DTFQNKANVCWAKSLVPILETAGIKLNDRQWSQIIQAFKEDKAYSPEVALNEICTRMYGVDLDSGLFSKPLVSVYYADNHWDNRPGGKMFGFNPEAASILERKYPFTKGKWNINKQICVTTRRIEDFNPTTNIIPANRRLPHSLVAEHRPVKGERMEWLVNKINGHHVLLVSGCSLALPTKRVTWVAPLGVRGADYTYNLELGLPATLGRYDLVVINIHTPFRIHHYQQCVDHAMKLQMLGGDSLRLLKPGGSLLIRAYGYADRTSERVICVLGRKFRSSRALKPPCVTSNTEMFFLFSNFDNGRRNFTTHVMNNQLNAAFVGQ

VEEV nsP2 protease, sequence (P27282 1003-1322 limits assumed): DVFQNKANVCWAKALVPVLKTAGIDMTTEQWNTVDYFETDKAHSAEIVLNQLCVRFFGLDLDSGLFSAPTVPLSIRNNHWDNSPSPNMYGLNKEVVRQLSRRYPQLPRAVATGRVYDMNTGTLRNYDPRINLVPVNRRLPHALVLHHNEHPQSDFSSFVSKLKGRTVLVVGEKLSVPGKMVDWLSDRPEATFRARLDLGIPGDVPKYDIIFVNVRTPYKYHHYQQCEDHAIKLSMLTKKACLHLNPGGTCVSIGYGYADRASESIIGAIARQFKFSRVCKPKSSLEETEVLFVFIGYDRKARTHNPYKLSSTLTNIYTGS
WEEV nsP2 protease, sequence (P13896 1001-1320 limits assumed): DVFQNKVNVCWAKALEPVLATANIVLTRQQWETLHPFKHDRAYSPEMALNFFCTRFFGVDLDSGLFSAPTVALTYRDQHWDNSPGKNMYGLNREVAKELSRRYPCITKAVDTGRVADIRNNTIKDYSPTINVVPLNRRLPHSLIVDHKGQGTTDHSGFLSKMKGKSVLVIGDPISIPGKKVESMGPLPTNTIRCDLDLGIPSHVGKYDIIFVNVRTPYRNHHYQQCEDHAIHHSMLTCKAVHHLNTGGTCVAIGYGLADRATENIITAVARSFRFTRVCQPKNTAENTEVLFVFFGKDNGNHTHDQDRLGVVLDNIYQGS

CCCNC(=O)[C@H]1O[C@@H]1C(=O)N[C@H](C(=O)N1CCC[C@H]1C(=O)O)[C@@H](C)CC [CA074]
CC50 (A549): > 100 µM
inhibition of WEEV nsP2 protease (WEEV nsP2 protease): inhibited
Microsomal Stability t1/2 [1]: >30 min
Rat_SD/Microsomes t1/2 [1]: >30 m
enhancement of inhibitor binding by Mg^2+ and Mn^2+ (VEEV nsP2 protease): 3 to 6 fold
k2/Ki (VEEV nsP2 protease; 50 mm hepes, pH 7): 3.3 ± 3.3 M⁻¹ s⁻¹
Ki (VEEV nsP2 protease; Ki): 1200 µM and 410 µM and 210 µM and 2000 µM
kinact/KI (VEEV nsP2 protease; pH 7, read-out: k2/Ki): 3.33 M⁻¹ s⁻¹
PAMPA: <1 ×10⁻⁶ cm/s
Permeability (PAMPA_Pion_Lipid) (PAMPA): <1 ×10⁻⁶ cm/s
inhibition of CHIKV nsP2 protease (CHIKV nsP2 protease): inhibited
